Measured values from paper PMC9613470, “Diverse MarR bacterial regulators of auxin catabolism in the plant microbiome” (Nature Microbiology, 2022).
Where two headings read alike, the source gives them in different places.

Assays:
[1] = target: Variovorax paradoxus CL14 MarR_73 (Variovorax paradoxus, UniProt C5CSP2); test: biochemical; type: binding
Procedure: The coding sequence for each gene can be found in Supplementary Table 10. MarR expression plasmids were synthesized as codon-optimized genes for E. coli expression by BioBasic in the pLIC-His N-term vector (pMCSG7) and transformed into E. coli BL21 (DE3) Gold cells for expression. […] At an OD600 of 0.8, protein expression was induced by the addition of 0.1 mM IPTG and incubation continued overnight. Cells were collected by centrifugation at 4,500 × g for 20 min at 4 °C in a Sorvall (model RC-3B) swinging bucket centrifuge. Cell pellets were resuspended in buffer A (20 mM potassium phosphate, pH 7.4, 50 mM imidazole, 500 mM NaCl), DNase, lysozyme and a Roche Complete EDTA-free protease inhibitor tablet. Resuspended cells were sonicated and clarified via centrifugation at 17,000 × g for 60 min in a Sorvall (model RC-5B) swinging bucket centrifuge. The lysate was applied to a nickel-nitrilotriacetic acid HP column (GE Healthcare) on an Aktaxpress Fast Performance Liquid Chromatography (FPLC) system (Amersham Bioscience) and washed with buffer A. Protein was eluted with buffer B (20 mM potassium phosphate, pH 7.4, 500 mM imidazole, 500 mM NaCl). Fractions containing the protein of interest were combined and passed over a HiLoadTM 16/60 SuperdexTM 200 gel filtration column. Proteins were eluted in S200 buffer (20 mM HEPES, pH 7.4, 300 mM NaCl). Fractions were combined and concentrated for long-term storage at −80 °C.
All ITC measurements were performed at 25 °C using an Auto-ITC200 microcalorimeter (MicroCal/GE Healthcare). The buffer employed was 20 mM HEPES, pH 7.4, 50 mM NaCl and 0.5% dimethly sulfoxide (DMSO) for protein/ligand binding and 20 mM HEPES, pH 7.4 and 300 mM NaCl for DNA/protein binding experiments. For ligand binding experiments, the calorimetry cell (volume […]) was loaded with MarR wild-type, mutant or homologue protein at a concentration of 50 μM. The syringe was loaded with a ligand concentration of 0.5 or 2 mM. […] A typical injection protocol included a single 0.2 μl first injection followed by 20 1.5 μl injections of the syringe sample into the calorimetry cell. The spacing between injections was kept at 180 s and the reference power at 8 μcal s^−1. […] Two independent ITC measurements were performed for each condition.

[2] = test system: Variovorax paradoxus CL14 MarR_73 S28A; test: ITC binding of duplex oligo DNA to MarR_73 S28A
Sequence of Variovorax paradoxus CL14 MarR_73 S28A (as listed by the source, stated change not applied): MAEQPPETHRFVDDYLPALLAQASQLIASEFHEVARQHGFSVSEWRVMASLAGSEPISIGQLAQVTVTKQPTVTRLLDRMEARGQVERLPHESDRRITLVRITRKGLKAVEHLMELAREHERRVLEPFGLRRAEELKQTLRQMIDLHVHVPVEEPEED

[3] = ITC, 25 °C, 20 mM HEPES pH 7.4, 50 mM NaCl, 0.5% DMSO, mean of two measurements ± standard error
[4] = ITC, 25 °C, 20 mM HEPES pH 7.4, 300 mM NaCl
[5] = ITC, 25 °C, 20 mM HEPES pH 7.4, 300 mM NaCl, duplex oligo in cell, protein in syringe

Sequence of Variovorax paradoxus CL14 MarR_73 (C5CSP2 entry or part of it): as the sequence (as listed by the source, stated change not applied) above, with A28S counted along it

Compound | Kd [1] [µM] | N (ligand binding stoichiometry to the MarR monomer) [1, 3] | also measured
O=C(O)Cc1cccc2ccccc12 [1-Naphthaleneacetic Acid] | 0.33 ± 0.01 | 0.74 ± 0.01 | –
O=C(O)COc1ccc(Cl)cc1Cl [2,4-Dichorophenoxyacetic Acid] | – | 1.40 ± 0.01 | Kd ([1]; ITC, 25 °C, 20 mM HEPES pH 7.4, 50 mM NaCl, 0.5% DMSO, mean of two measurements ± standard error, read-out: KD): 11 ± 1 µM
O=C(O)Cc1c[nH]c2ccc(O)cc12 [5-Hydroxyindole-3-Acetic Acid] | 10 ± 0.3 | 0.78 ± 0.25 | –
O=C(O)c1ccccc1 [Benzoic Acid] | 13 ± 1 | 0.80 ± 0.01 | –
Oc1ccccc1O [Catachol (1,2-Dihydroxybenzene), 1,2-Dihydroxybenzene] | 13 ± 0.1 | 0.76 ± 0.01 | –
O=C(O)CCCc1c[nH]c2ccccc12 [Indole-3-Butyric Acid] | 18 ± 1 | 0.80 ± 0.01 | –
O=C(O)c1c[nH]c2ccccc12 [Indole-3-Carboxylic Acid] | 4.6 ± 0.5 | 0.67 ± 0.03 | –
O=C(O)CCc1c[nH]c2ccccc12 [Indole-3-propionic Acid] | 17 ± 0.1 | 0.81 ± 0.05 | –
O=C(O)Cc1ccccc1 [Phenylacetic Acid] | 10 ± 0.1 | 0.79 ± 0.02 | –
Nc1c(Cl)c(Cl)nc(C(=O)O)c1Cl [Picloram] | 16 ± 0.4 | 0.96 ± 0.01 | –
O=C(O)c1ccccc1O [Salicylic Acid] | 14 ± 3 | 0.90 ± 0.01 | –
AATTCATGATTGTGGATACATT: 22 bp duplex oligo DNA, sequence between genes 73 and 72 (antisense TTAAGTACTAACACCTATGTAA; chemistry not fully specified; one strand is listed 3' to 5') | – | – | Kd ([2]; ITC in 150 mM NaCl): 428 ± 2 nM; N ([2]; ITC in 150 mM NaCl): 1.75 ± 0.014; N (MarR monomer binding stoichiometry to duplex DNA) [2, 4]: 2.1 ± 0.3; Kd [2, 5]: 520 ± 90 nM
AATTCATGATTGTGGATACATTCA: 24 bp MarR_73 DNA binding sequence between genes 73 and 72 (antisense TTAAGTACTAACACCTATGTAAGT; chemistry not fully specified; one strand is listed 3' to 5') | – | – | Kd ([2]; ITC in 150 mM NaCl): 151 ± 25 nM; N ([2]; ITC in 150 mM NaCl): 2.51 ± 0.26; N (MarR monomer binding stoichiometry to duplex DNA) [2, 4]: 2.5 ± 0.2; Kd [2, 5]: 210 ± 90 nM
GTAATTCATGATTGTGGATACATTCATTTG: 30 bp duplex oligo DNA, sequence between genes 73 and 72 of the Variovorax IAA degradation locus (antisense CATTAAGTACTAACACCTATGTAAGTAAAC; chemistry not fully specified; one strand is listed 3' to 5') | – | – | N (MarR monomer binding stoichiometry to duplex DNA) [2, 4]: 2.0 ± 0.1; Kd [2, 5]: 270 ± 20 nM
